This is an account of results in patent US20240252488A1 (KOREA RESEARCH INSTITUTE OF CHEMICAL TECHNOLOGY, priority 2020, published 2024).

Experiment [1] deals with T1, MLKL (Homo sapiens, UniProt Q8NB16).
T1 sequence (Q8NB16 1-471): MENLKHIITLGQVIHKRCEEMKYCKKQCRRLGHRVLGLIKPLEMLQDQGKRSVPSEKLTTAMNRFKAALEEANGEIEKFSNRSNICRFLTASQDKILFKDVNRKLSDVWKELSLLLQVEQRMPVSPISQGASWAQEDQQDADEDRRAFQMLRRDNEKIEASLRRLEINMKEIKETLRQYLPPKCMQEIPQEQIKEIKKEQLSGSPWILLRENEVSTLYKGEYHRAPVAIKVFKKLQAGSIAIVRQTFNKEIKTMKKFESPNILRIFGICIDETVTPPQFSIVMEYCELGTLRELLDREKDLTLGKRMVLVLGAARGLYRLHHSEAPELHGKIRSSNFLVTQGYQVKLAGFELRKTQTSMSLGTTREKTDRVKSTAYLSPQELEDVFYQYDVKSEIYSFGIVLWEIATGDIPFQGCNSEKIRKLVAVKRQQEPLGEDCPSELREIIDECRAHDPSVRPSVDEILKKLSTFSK
The experiment is described as follows: MLKL degradation assay in HepG2 cell line (western blot). Type of experiment: cell-based. The arrangement: endogenous in cells; host or cells: HepG2 or HaCaT. The conditions noted are these: cell line not given; for Degradation assay (Degradation %) 1 μM: compound 1 μM; for Degradation assay (Degradation %) 10 μM: compound 10 μM. In short, it runs like this: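 Western blot chemiluminescence of MLKL in equal-protein lysates (10-15 μg, BCA-adjusted). Before lysis, HepG2 cells were exposed to 1 or 10 μM (final) test compound for 20-24 h at 37 °C.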

The test system of experiment [2] is FADD−/− Jurkat cells. Nature of the experiment: Necroptosis inhibition assay, TNF-α-induced necroptosis (CellTiter-Glo 2.0). It is filed as cell-based, human. Conditions: TNF-α 15 ng/mL; for Necroptosis inhibition assay (Rescue %) 1 μM: compound 1 μM; for Necroptosis inhibition assay (Rescue %) 10 μM: compound 10 μM; for Necroptosis inhibition assay (Rescue %) 1.1 μM: compound 1.1 µM. In short, it runs like this: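 Necroptosis induced by 15 ng/mL TNF-α (final) for 20–24 h at 37 °C, after a 30 min room-temperature pretreatment of FADD-deficient Jurkat cells with 0.1, 1 or 10 μM compound. ATP-based luminescence gave viability, from which inhibition rate and cytotoxicity were derived.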
(In ATP-based viability assays light output follows the ATP content of the culture.)

In experiment [3] the target is T1, MLKL. Nature of the experiment: Measurement of binding affinity with MLKL receptor (competitive binding assay, Kd). The arrangement: made in house; host or cells: HEK 293 cell line (T7 phage in E. coli BL21-derived host is also described). In short, it runs like this:
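qPCR of MLKL eluted from liganded beads served as the read-out, from which Kd was derived. The protein was made in HEK 293 cells with a DNA tag, and test compounds competed with the bead-bound ligand at 0.9% final DMSO.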

On to `Nc1ncc(-c2cnn(C3CCN(CCOCCOCCOCCNC(=O)C4CCN(c5ccc6c(c5)C(=O)N(C5CCC(=O)NC5=O)C6=O)CC4)CC3)c2)nc1C(=O)O[C@@H](C(=O)Nc1ccc(F)cc1)c1ccccc1` (stereo partly drawn) [TDH-140, (R)-2-((4-fluorophenyl)amino)-2-oxo-1-phenylethyl 3-amino-6-(1-(1-(1-(1-(2-(2,6-dioxopiperidin-3-yl)-1,3-dioxoisoindolin-5-yl)piperidin-4-yl)-1-oxo-5,8,11-trioxa-2-azatridecan-13-yl)piperidin-4-yl)-1H-pyrazol-4-yl)pyrazine-2-carboxylate], for which, in experiment [1], the “Degradation assay (Degradation %) 1 μM” value amounted to 41.81% and the “Degradation assay (Degradation %) 10 μM” value was 83.53%. In experiment [2], the “Necroptosis inhibition assay (Rescue %) 1 μM” value amounted to 21.32% and the “Necroptosis inhibition assay (Rescue %) 10 μM” value was 81.41%. In experiment [3], binding was characterised by a dissociation constant (Kd) of 9.2 nM.

As to `Nc1ncc(-c2cnn(C3CCN(CCOC4CCN(C(=O)COc5ccc6c(c5)C(=O)N(C5CCC(=O)NC5=O)C6=O)CC4)CC3)c2)nc1C(=O)O[C@@H](C(=O)Nc1ccc(F)cc1)c1ccccc1` (stereo partly drawn) [TDH-332, (R)-2-((4-fluorophenyl)amino)-2-oxo-1-phenylethyl 3-amino-6-(1-(1-(2-((1-(2-((2-(2,6-dioxopiperidin-3-yl)-1,3-dioxoisoindolin-5-yl)oxy)acetyl)piperidin-4-yl)oxy)ethyl)piperidin-4-yl)-1H-pyrazol-4-yl)pyrazine-2-carboxylate], in experiment [1], the “Degradation assay (Degradation %) 1 μM” value came out at 61.62% and the “Degradation assay (Degradation %) 10 μM” value came to 63.17%. Besides, in experiment [2], the “Necroptosis inhibition assay (Rescue %) 1.1 μM” value was 68.62 (1.1 µM) % and the “Necroptosis inhibition assay (Rescue %) 10 μM” value amounted to 37.17%. Further, in experiment [3], binding was characterised by a dissociation constant (Kd) of 2.6 nM.

On to `Nc1ncc(-c2cnn(C3CCN(C(=O)CC4CCN(C(=O)C5CCN(c6ccc7c(c6)C(=O)N(C6CCC(=O)NC6=O)C7=O)CC5)CC4)CC3)c2)nc1C(=O)O[C@@H](C(=O)Nc1ccc(F)cc1)c1ccccc1` (stereo partly drawn) [TDH-342, (R)-2-((4-fluorophenyl)amino)-2-oxo-1-phenylethyl 3-amino-6-(1-(1-(2-(1-(1-(2-(2,6-dioxopiperidin-3-yl)-1,3-dioxoisoindolin-5-yl)piperidine-4-carbonyl)piperidin-4-yl)acetyl)piperidin-4-yl)-1H-pyrazol-4-yl)pyrazine-2-carboxylate], for which, in experiment [1], the “Degradation assay (Degradation %) 1 μM” value is 70.74% and the “Degradation assay (Degradation %) 10 μM” value was 54.03%. In addition, in experiment [2], the “Necroptosis inhibition assay (Rescue %) 1 μM” value is listed as 28.05% and the “Necroptosis inhibition assay (Rescue %) 10 μM” value stood at 17.55%. In addition, binding in experiment [3] was put at a Kd of 5.8 nM.

Regarding `Nc1ncc(-c2cnn(C3CCN(CC4CCN(c5ccc6nnn(C7CCC(=O)NC7=O)c(=O)c6c5)CC4)CC3)c2)nc1C(=O)O[C@@H](C(=O)Nc1ccc(F)cc1)c1ccccc1` (stereo partly drawn) [TDH-172, (R)-2-((4-fluorophenyl)amino)-2-oxo-1-phenylethyl 3-amino-6-(1-(1-((1-(3-(2,6-dioxopiperidin-3-yl)-4-oxo-3,4-dihydrobenzo[d][1,2,3]triazin-6-yl)piperidin-4-yl)methyl)piperidin-4-yl)-1H-pyrazol-4-yl)pyrazine-2-carboxylate], in experiment [1], the “Degradation assay (Degradation %) 1 μM” value worked out at 59.24% and the “Degradation assay (Degradation %) 10 μM” value amounted to 57.1%. In addition, in experiment [2], the “Necroptosis inhibition assay (Rescue %) 1 μM” value worked out at 85.53% and the “Necroptosis inhibition assay (Rescue %) 10 μM” value is listed as 74.34%. Besides, in experiment [3], binding was put at a Kd of 26 nM.

In the case of `Nc1ncc(-c2cnn([C@@H]3CCN(CCOCCOCCNC(=O)CNc4ccc5c(c4)C(=O)N(C4CCC(=O)NC4=O)C5=O)C3)c2)nc1C(=O)OC(C(=O)Nc1ccc(F)cc1)c1ccccc1` (stereo partly drawn) [TDH-268, 2-((4-fluorophenyl)amino)-2-oxo-1-phenylethyl 3-amino-6-(1-((3R)-1-(2-(2-(2-(2-((2-(2,6-dioxopiperidin-3-yl)-1,3-dioxoisoindolin-5-yl)amino)acetamido)ethoxy)ethoxy)ethyl)pyrrolidin-3-yl)-1H-pyrazol-4-yl)pyrazine-2-carboxylate], in experiment [1], the “Degradation assay (Degradation %) 1 μM” value amounted to 7.05% and the “Degradation assay (Degradation %) 10 μM” value was determined as 35.64%. In experiment [2], the “Necroptosis inhibition assay (Rescue %) 1 μM” value was 21.45% and the “Necroptosis inhibition assay (Rescue %) 10 μM” value is on record as 51.22%. Binding in experiment [3] was characterised by a dissociation constant (Kd) of 6.9 nM.

On to `Nc1ncc(-c2cnn(C3CCN(CCCN4CCN(C(=O)CNc5ccc6c(c5)C(=O)N(C5CCC(=O)NC5=O)C6=O)CC4)CC3)c2)nc1C(=O)O[C@@H](C(=O)Nc1ccc(F)cc1)c1ccccc1` (stereo partly drawn) [TDH-357, (R)-2-((4-fluorophenyl)amino)-2-oxo-1-phenylethyl 3-amino-6-(1-(1-(3-(4-((2-(2,6-dioxopiperidin-3-yl)-1,3-dioxoisoindolin-5-yl)glycyl)piperazin-1-yl)propyl)piperidin-4-yl)-1H-pyrazol-4-yl)pyrazine-2-carboxylate], for which, in experiment [1], the “Degradation assay (Degradation %) 1 μM” value was determined as 84.79% and the “Degradation assay (Degradation %) 10 μM” value amounted to 76.36%. In experiment [2], the “Necroptosis inhibition assay (Rescue %) 1.1 μM” value is recorded as 82.13 (1.1µM) %. Moreover, in experiment [3], binding was characterised by a dissociation constant (Kd) of 0.55 nM.

Consider `Nc1ncc(-c2cnn(C3CCN(CCOC4CCN(C(=O)c5cccc(C(=O)NC6CCC(=O)NC6=O)c5)CC4)CC3)c2)nc1C(=O)O[C@@H](C(=O)Nc1ccc(F)cc1)c1ccccc1` (stereo partly drawn) [TDH-545, (R)-2-((4-fluorophenyl)amino)-2-oxo-1-phenylethyl 3-amino-6-(1-(1-(2-((1-(3-((2,6-dioxopiperidin-3-yl)carbamoyl)benzoyl)piperidin-4-yl)oxy)ethyl)piperidin-4-yl)-1H-pyrazol-4-yl)pyrazine-2-carboxylate], for which, in experiment [1], the “Degradation assay (Degradation %) 1 μM” value turned out to be 65.64% and the “Degradation assay (Degradation %) 10 μM” value came out at 74.02%. Further, in experiment [2] (FADD−/− Jurkat cells), the “Necroptosis inhibition assay (Rescue %) 1 μM” value was determined as 32.16% and the “Necroptosis inhibition assay (Rescue %) 10 μM” value is on record as 41.07%. Also, in experiment [3], the Kd (usually a measure of binding affinity in units of concentration) amounted to 0.28 nM.

For `Nc1ncc(-c2cnn(C3CCN(C(=O)CCC4CCN(C(=O)CNc5ccc6nnn(C7CCC(=O)NC7=O)c(=O)c6c5)CC4)CC3)c2)nc1C(=O)O[C@@H](C(=O)Nc1ccc(F)cc1)c1ccccc1` (stereo partly drawn) [TDH-434, (R)-2-((4-fluorophenyl)amino)-2-oxo-1-phenylethyl 3-amino-6-(1-(1-(3-(1-((3-(2,6-dioxopiperidin-3-yl)-4-oxo-3,4-dihydrobenzo[d][1,2,3]triazin-6-yl)glycyl)piperidin-4-yl)propanoyl)piperidin-4-yl)-1H-pyrazol-4-yl)pyrazine-2-carboxylate], in experiment [1], the “Degradation assay (Degradation %) 1 μM” value is 85.08% and the “Degradation assay (Degradation %) 10 μM” value is reported as 74.66%. Besides, in experiment [2] (FADD−/− Jurkat cells), the “Necroptosis inhibition assay (Rescue %) 1 μM” value is given as 28.72% and the “Necroptosis inhibition assay (Rescue %) 10 μM” value is listed as 20.87%. Further, the Kd in experiment [3] is 1.4 nM.

For the compound `Nc1ncc(-c2cnn(C3CCN(C(=O)C4CCN(C(=O)CCc5ccc6c(c5)C(=O)N(C5CCC(=O)NC5=O)C6=O)CC4)CC3)c2)nc1C(=O)O[C@@H](C(=O)Nc1ccc(F)cc1)c1ccccc1` (stereo partly drawn) [TDH-381, (R)-2-((4-fluorophenyl)amino)-2-oxo-1-phenylethyl 3-amino-6-(1-(1-(1-(3-(2-(2,6-dioxopiperidin-3-yl)-1,3-dioxoisoindolin-5-yl)propanoyl)piperidine-4-carbonyl)piperidin-4-yl)-1H-pyrazol-4-yl)pyrazine-2-carboxylate], in experiment [1], the “Degradation assay (Degradation %) 1 μM” value was 78.38% and the “Degradation assay (Degradation %) 10 μM” value is 77.07%. Further, in experiment [2], the “Necroptosis inhibition assay (Rescue %) 1 μM” value is listed as 32.48% and the “Necroptosis inhibition assay (Rescue %) 10 μM” value came out at 28.99%. In addition, the Kd in experiment [3] turned out to be 1.5 nM.

Regarding `Nc1ncc(-c2cnn(C3CCN(C(=O)C4CCN(C(=O)CNc5cccc6c5C(=O)N(C5CCC(=O)NC5=O)C6=O)CC4)CC3)c2)nc1C(=O)OC(C(=O)Nc1ccc(F)cc1)c1ccccc1` (stereo not shown) [TDH-275, 2-((4-fluorophenyl)amino)-2-oxo-1-phenylethyl 3-amino-6-(1-(1-(1-((2-(2,6-dioxopiperidin-3-yl)-1,3-dioxoisoindolin-4-yl)glycyl)piperidine-4-carbonyl)piperidin-4-yl)-1H-pyrazol-4-yl)pyrazine-2-carboxylate], in experiment [1], the “Degradation assay (Degradation %) 1 μM” value is 57.84% and the “Degradation assay (Degradation %) 10 μM” value is recorded as 63.11%. For the same compound, in experiment [2], the “Necroptosis inhibition assay (Rescue %) 1 μM” value worked out at 69.59% and the “Necroptosis inhibition assay (Rescue %) 10 μM” value was 69.98%. This compound displayed a Kd in experiment [3] of 4.9 nM.
